Assay results: patent publication US20230116972A1, “CD38 MODULATORS AND METHODS OF USE THEREOF” (Cytokinetics, Inc., priority 2021, published 2023)
pIC50: −log10 of the molar value.

Key:
human CD38 = target: T1, human CD38 (Homo sapiens, UniProt P28907); experiment: human recombinant CD38 enzyme assay (hydrolysis of NAD+); format: biochemical; details: human recombinant CD38, 0.4 nM enzyme, 62.5 μM NAD+; read-out: hCD38 BioChem IC50
T1 sequence (P28907 1-300): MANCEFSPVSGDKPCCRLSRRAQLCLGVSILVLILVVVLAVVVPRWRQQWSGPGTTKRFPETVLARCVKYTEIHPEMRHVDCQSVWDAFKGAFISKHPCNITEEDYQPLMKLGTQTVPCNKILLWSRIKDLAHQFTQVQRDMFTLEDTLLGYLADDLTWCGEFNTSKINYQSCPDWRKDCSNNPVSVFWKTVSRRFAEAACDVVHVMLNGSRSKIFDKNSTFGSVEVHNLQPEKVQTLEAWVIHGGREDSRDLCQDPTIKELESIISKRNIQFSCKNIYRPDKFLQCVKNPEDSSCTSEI
Protocol: (§1) Compounds described herein were assayed for their ability to inhibit the hydrolysis of NAD+ by the protein CD38. The human and mouse recombinant enzyme assays measure the inhibition of the enzyme activity by compounds using recombinant enzymes and substrates in a buffered cell-free system. The assay conditions closely mimic cellular environments. Dose responses were measured using an assay to detect the hydrolysis of NAD+. All experiments were performed in the 384-well format. […] Enzyme reactions were initiated with the addition of 10 μL of a solution containing NAD+ substrate. Subsequent detection of remaining NAD+ was determined by first converting NAD+ to NADH using alcohol dehydrogenase, then using the resulting NADH to reduce resazurine to the fluorescent product resorufin. […] Following an incubation of 60 min at ambient temperature, 10 μL of 120 mM ethanol+20 U/ml alcohol dehydrogenase+30 mM semicarbazide+0.03 mM CD38 inhibitor in 50 mM HEPES, pH 7.5, 0.2 mg/ml BSA, was added and incubated at ambient temperature for 15 min. Then 10 μl 0.32 mM NaOH was added to stop the ADH reaction (plates incubated at ambient temperature for 15 min), followed by 30 μL of 0.05 mM resazurine+1000 mU/ml Diaphorase in 200 mM Tris-HCl, pH 7.7 for 15 min at ambient temperature. The plates were read for fluorescence (Excitation/Emission=540 nm/590 nm) using an EnVision plate reader. […] Note that, in Table 4, the “Compound No” corresponds to the compound numbers in Table 1.

mouse CD38 = target: T2, mouse CD38 (Mus musculus, UniProt P56528); experiment: mouse recombinant CD38 enzyme assay (hydrolysis of NAD+); format: biochemical; details: read-out: mCD38 BioChem IC50
T2 sequence (P56528 1-304): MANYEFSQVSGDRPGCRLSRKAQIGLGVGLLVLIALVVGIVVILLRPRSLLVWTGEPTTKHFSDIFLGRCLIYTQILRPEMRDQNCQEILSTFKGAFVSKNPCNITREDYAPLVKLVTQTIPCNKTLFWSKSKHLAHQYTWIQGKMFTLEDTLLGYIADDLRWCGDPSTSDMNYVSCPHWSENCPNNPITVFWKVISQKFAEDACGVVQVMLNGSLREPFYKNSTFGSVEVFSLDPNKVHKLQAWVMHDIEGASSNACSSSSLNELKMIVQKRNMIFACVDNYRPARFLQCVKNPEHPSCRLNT
Protocol: as §1

Row | Compound | pIC50 (human CD38) | pIC50 (mouse CD38)
1 | Cn1cncc1-c1nc(C(=O)N[C@H]2CC[C@H](C(F)F)CC2)cc(C(C)(C)O)n1 [Compound 177, N-((1r,4r)-4-(difluoromethyl)cyclohexyl)-6-(2-hydroxypropan-2-yl)-2-(1-methyl-1H-imidazol-5-yl)pyrimidine-4-carboxamide] | 7.46 | 8.05
2 | COC[C@H]1CC[C@H](NC(=O)c2ccnc(-c3cncs3)n2)CC1 [Compound 139, N-((1r,4r)-4-(methoxymethyl)cyclohexyl)-2-(thiazol-5-yl)pyrimidine-4-carboxamide] | 5.99 | 6.63
3 | O=C(NC1CN(c2ccccc2)C1)c1nccc(-n2ccnc2)n1 [Compound 262, 4-(1H-imidazol-1-yl)-N-(1-phenylazetidin-3-yl)pyrimidine-2-carboxamide] | 5.74 | 6.63
4 | Cn1cncc1-c1nc(C(=O)NC2CCC(F)(F)CC2)cc(C2CCC2)n1 [Compound 182, 6-cyclobutyl-N-(4,4-difluorocyclohexyl)-2-(1-methyl-1H-imidazol-5-yl)pyrimidine-4-carboxamide] | 7.96 | 8.70
5 | Cn1cncc1-c1ccnc(C(=O)N[C@H]2C[C@](O)(c3ccccc3)C2)n1 [Compound 310, N-((1s,3s)-3-hydroxy-3-phenylcyclobutyl)-4-(1-methyl-1H-imidazol-5-yl)pyrimidine-2-carboxamide] | 6.45 | 6.98
6 | CO[C@H]1CC[C@H](NC(=O)c2nc(-c3cncn3C)ncc2F)CC1 [Compound 333, 5-fluoro-N-((1r,4r)-4-methoxycyclohexyl)-2-(1-methyl-1H-imidazol-5-yl)pyrimidine-4-carboxamide] | 7.89 | 8.47
7 | Cn1cncc1-c1ncc(Cl)c(C(=O)N[C@H]2CC[C@H](OC(F)F)CC2)n1 [Compound 323, 5-chloro-N-((1r,4r)-4-(difluoromethoxy)cyclohexyl)-2-(1-methyl-1H-imidazol-5-yl)pyrimidine-4-carboxamide] | 7.66 | 7.97
8 | CO[C@H]1CC[C@H](NC(=O)c2nc(-c3cncn3C)ncc2Cl)CC1 [Compound 329, 5-chloro-N-((1r,4r)-4-methoxycyclohexyl)-2-(1-methyl-1H-imidazol-5-yl)pyrimidine-4-carboxamide] | 7.47 | 7.97
9 | O=C(Nc1cccnc1)c1cc(C(F)(F)F)cc(-c2cncs2)n1 [Compound 41, N-(pyridin-3-yl)-6-(thiazol-5-yl)-4-(trifluoromethyl)picolinamide] | 5.92 | 6.61
10 | Cn1cncc1-c1nc(C(=O)Nc2ccc(OC(F)F)nc2)cc(C2CCC(F)(F)CC2)n1 [Compound 342, 6-(4,4-difluorocyclohexyl)-N-(6-(difluoromethoxy)pyridin-3-yl)-2-(1-methyl-1H-imidazol-5-yl)pyrimidine-4-carboxamide] | 7.70 | 8.54
11 | Cn1cncc1-c1ccnc(C(=O)N[C@H]2CC[C@H](O)C2)n1 [Compound 305, N-((1S,3S)-3-hydroxycyclopentyl)-4-(1-methyl-1H-imidazol-5-yl)pyrimidine-2-carboxamide] | 6.31 | 7.20
12 | O=C(N[C@H]1CC[C@H](CO)CC1)c1ccnc(-c2cncs2)n1 [Compound 140, N-((1r,4r)-4-(hydroxymethyl)cyclohexyl)-2-(thiazol-5-yl)pyrimidine-4-carboxamide] | 6.13 | 6.93
13 | CO[C@H]1CC[C@H](NC(=O)c2cc(C3CC3)nc(-n3ccnc3)n2)CC1 [Compound 160, 6-cyclopropyl-2-(1H-imidazol-1-yl)-N-((1r,4r)-4-methoxycyclohexyl)pyrimidine-4-carboxamide] | 7.57 | 8.40
14 | O=C(Nc1ccc(OC(F)F)nc1)c1nccc(-n2ccnc2)n1 [Compound 354, N-(6-(difluoromethoxy)pyridin-3-yl)-4-(1H-imidazol-1-yl)pyrimidine-2-carboxamide] | 8.38 | 7.77
15 | Cn1cncc1-c1ncc(F)c(C(=O)N[C@H]2CC[C@H](OC(F)(F)F)CC2)n1 [Compound 340, 5-fluoro-2-(1-methyl-1H-imidazol-5-yl)-N-((1r,4r)-4-(trifluoromethoxy)cyclohexyl)pyrimidine-4-carboxamide] | 7.92 | 8.20
16 | Cn1cncc1-c1nc(C(=O)N[C@H]2CC[C@H](OC(F)F)CC2)cc(C2CCC(F)(F)CC2)n1 [Compound 324, 6-(4,4-difluorocyclohexyl)-N-((1r,4r)-4-(difluoromethoxy)cyclohexyl)-2-(1-methyl-1H-imidazol-5-yl)pyrimidine-4-carboxamide] | 7.80 | 8.68

Second part, the compound after the results:

Row | pIC50 (human CD38) | pIC50 (mouse CD38) | Compound
17 | 5.77 | 6.90 | Cn1cncc1-c1ccnc(C(=O)N[C@H]2CC[C@@](O)(c3ccccc3)CC2)n1 [Compound 253, N-((1r,4r)-4-hydroxy-4-phenylcyclohexyl)-4-(1-methyl-1H-imidazol-5-yl)pyrimidine-2-carboxamide]
18 | 7.68 | 8.38 | COCCO[C@H]1CC[C@H](NC(=O)c2cc(C3CCOCC3)nc(-c3cncn3C)n2)C1 [Compound 353, N-((1S,3S)-3-(2-methoxyethoxy)cyclopentyl)-2-(1-methyl-1H-imidazol-5-yl)-6-(tetrahydro-2H-pyran-4-yl)pyrimidine-4-carboxamide]
19 | 8.48 | 9.00 | Cn1cncc1-c1nc(C(=O)Nc2ccc(C(F)(F)F)nc2)cc(C2CC3(COC3)C2)n1 [Compound 345, 2-(1-methyl-1H-imidazol-5-yl)-6-(2-oxaspiro[3.3]heptan-6-yl)-N-(6-(trifluoromethyl)pyridin-3-yl)pyrimidine-4-carboxamide]
20 | 5.87 | 6.65 | O=C(N[C@H]1C[C@@H](c2ccc(C(F)(F)F)nc2)C1)c1nccc(-n2ccnc2)n1 [Compound 272, 4-(1H-imidazol-1-yl)-N-((1s,3s)-3-(6-(trifluoromethyl)pyridin-3-yl)cyclobutyl)pyrimidine-2-carboxamide]
21 | 7.54 | 7.87 | Cc1cnc(-c2cncn2C)nc1C(=O)N[C@H]1CC[C@H](OC(F)F)CC1 [Compound 335, N-((1r,4r)-4-(difluoromethoxy)cyclohexyl)-5-methyl-2-(1-methyl-1H-imidazol-5-yl)pyrimidine-4-carboxamide]
22 | 7.53 | 7.71 | Cn1cncc1-c1ncc(Cl)c(C(=O)N[C@H]2CC[C@H](OC(F)(F)F)CC2)n1 [Compound 325, 5-chloro-2-(1-methyl-1H-imidazol-5-yl)-N-((1r,4r)-4-(trifluoromethoxy)cyclohexyl)pyrimidine-4-carboxamide]
23 | 7.55 | 7.72 | Cn1cncc1-c1nc(C(=O)Nc2ccc(C(F)(F)F)nc2)cc(C(C)(C)O)n1 [Compound 176, 6-(2-hydroxypropan-2-yl)-2-(1-methyl-1H-imidazol-5-yl)-N-(6-(trifluoromethyl)pyridin-3-yl)pyrimidine-4-carboxamide]
24 | 5.67 | 6.38 | O=C(N[C@H]1C[C@@H](c2ccnc(C(F)(F)F)c2)C1)c1nccc(-n2ccnc2)n1 [Compound 271, 4-(1H-imidazol-1-yl)-N-((1s,3s)-3-(2-(trifluoromethyl)pyridin-4-yl)cyclobutyl)pyrimidine-2-carboxamide]
25 | 6.21 | 6.70 | CCO[C@H]1C[C@H](NC(=O)c2nccc(-n3ccnc3)n2)C1 [Compound 301, N-((1r,3r)-3-ethoxycyclobutyl)-4-(1H-imidazol-1-yl)pyrimidine-2-carboxamide]
26 | 8.46 | 8.96 | COc1ccc(NC(=O)c2cc(C3CCOCC3)nc(-c3cncn3C)n2)cn1 [Compound 355, N-(6-methoxypyridin-3-yl)-2-(1-methyl-1H-imidazol-5-yl)-6-(tetrahydro-2H-pyran-4-yl)pyrimidine-4-carboxamide]
27 | 5.92 | 6.31 | Cc1ccc(NC(=O)c2cccc(-c3cncs3)n2)cn1 [Compound 51, N-(6-methylpyridin-3-yl)-6-(thiazol-5-yl)picolinamide]
